Values quoted from earlier work in US20240342250A1, “COMPOSITION AND METHODS OF TREATMENT USING […]-ENHANCED SUPPLEMENTATION” (Xygenyx Inc., priority 2023, published 2024).
Non-standard residues stand in square brackets, D forms with d. Residues, ends and D or L forms follow the SMILES beside them. Cit = NC(=O)NCCC[C@H](N)C(=O)O

Columns and labels:
[1] = system: symptoms of depression; settings: patients who did not respond to traditional antidepressant medications
[2] = compared to alpha-tocopherol = 1.0
[3] = even when dietary intake occurs in equal portions
[4] = system: skin; settings: topical formulations; within four weeks of treatment
[5] = system: wide dynamic range neurons in the ventroposterolateral nucleus of the thalamus; settings: is believed
[6] = system: memory recall and cognitive function; settings: compared to placebo; 34 pairs of matched adolescent students
[7] = in vivo
[8] = system: skin
[9] = system: markers of inflammation in the blood; settings: individuals with metabolic syndrome
[10] = generally considered safe and well-tolerated at doses of up to
[11] = system: systemic inflammation, oxidative status, and liver cell metabolism associated with rheumatoid arthritis; settings: arthritic subjects
[12] = system: skin; settings: topical, concentrations 0.5-5%

CN1c2c([nH]c(N)nc2=O)NCC1CNc1ccc(C(=O)N[C@@H](CCC(=O)O)C(=O)O)cc1 (stereo partly shown) [5-MTHF, 5-methyltetrahydrofolate]
symptoms of depression [1]: improved symptoms of depression

Cc1c(O)cc2c(c1C)O[C@](C)(CCC[C@H](C)CCC[C@H](C)CCCC(C)C)CC2 [γ-tocopherol]
relative biological activity [2]: 0.1 | concentration in vivo relative to alpha-tocopherol [3]: roughly 10%

CC[C@H](C)[C@H](NC(=O)[C@H](CC(=O)O)NC(=O)[C@@H](N)CCCCN)C(=O)N[C@@H](CCCNC(N)=O)C(N)=O [Tripeptide-10 citrulline] (H-KDI[Cit]-NH2)
improvement of suppleness [4]: ≤ 54%

CCCCCc1cc(O)c2c(c1)OC(C)(C)C1CCC(C)=CC21 (stereo not shown) [THC, Δ-9-tetrahydrocannabinol]
potency in mediating pain relative to morphine [5]: ten times more powerful than morphine

C/C=C1\[C@H]2C=C(C)C[C@]1(N)c1ccc(=O)[nH]c1C2 [Huperzine A]
memory recall and cognitive function [6]: significant improvements in memory recall and cognitive function

HGH: hormone comprising a peptide chain that is synthesized in the pituitary gland
biological half-life [7]: 10-20 minutes

CC(C)[C@@H]1CC[C@@H](C)C[C@H]1O [Menthol]
increase of transdermal drug uptake, factor [8]: ≥ 10

Cc1c(C)c2c(c(C)c1O)CC[C@@](C)(CCC[C@H](C)CCC[C@H](C)CCCC(C)C)O2 [α-tocopherol]
progression of age-related macular degeneration (400-500 IU in combination with 10-20 mg beta-carotene and 400-500 mg vitamin C): dramatically reduce the progression of age-related macular degeneration | functional health of sperm (800-900 IU/day): improve functional health of sperm | blood plasma concentration of F2-isoprostane (1600-3200 IU/day): significantly lower blood plasma concentration of F2-isoprostane | reduction of risk of coronary disease (dietary supplementation, doses up to 400 IU/day): up to 34% | reduction of risk of developing neurodegenerative diseases such as Alzheimer's Syndrome or dementia (dietary supplementation, doses up to 400 IU/day, controlled trials): ≤ 24% | reduction in the development of age-related cataracts (in combination with 10-20 mg beta-carotene and 400-500 mg vitamin C): 23%

CC12CCC(CC1)C(C)(C)O2 [eucalyptol, Eucalyptol]
increase of transdermal drug uptake, factor [8]: more than 10

Cc1cc(O)cc2c1O[C@](C)(CCC[C@H](C)CCC[C@H](C)CCCC(C)C)CC2 [δ-tocopherol]
relative biological activity [2]: 0.03 | markers of inflammation in the blood [9]: reduced markers of inflammation in the blood

CCNC(=O)CC[C@H](N)C(=O)O [Theanine]
safe and well-tolerated dose [10]: up to 400 mg per day

C=C1CC/C=C(\C)CC[C@@H]2[C@@H]1CC2(C)C [β-caryophyllene]
protein carbonyl groups and myeloperoxidase activity in liver and plasma [11]: eliminated increases of protein carbonyl groups and myeloperoxidase activity | swelling of joints and lymph nodes, circulating and articular leukocytes [11]: reduced swelling of joints and lymph nodes as well as the number of circulating and articular leukocytes

Cc1cc(O)c(C)c2c1O[C@](C)(CCC[C@H](C)CCC[C@H](C)CCCC(C)C)CC2 [β-tocopherol]
relative biological activity [2]: 0.5

C=CCCCCCCCCC(=O)N[C@@H](Cc1ccccc1)C(=O)O [UP, Undecylenoyl phenylalanine]
time to skin lightening effects [12]: ≥ 7 days
